Source: patent US20160237502A1, “MARKERS FOR LIPID METABOLISM” (priority 2014, published 2016)
“Also recorded” adds a separate entry of the source.

Tests used:
alh-6 mutant worms = test: Fat content during fasting measured by Nile Red staining; format: in vivo, C. elegans; settings: NAC-treated alh-6 mutant worms
Procedure: For starvation, synchronized L1 animals were added to nematode growth medium (NGM) plates seeded with indicated bacteria. After 2 days at 20° C., L4 animals were collected, washed with M9 buffer at least three times and then subjected to fasting in M9 liquid with shaking for indicated time before collection for further analysis. Starvation survival assay was performed as previous described (Artyukhin et al., Sci. Rep.; 3, 2777; 2013). […] After 24 h, synchronized L1 animals were resuspended in M9 at a concentration of two worms per microliter. Starvation culture was mixed by constant rocking. Every 2 days, a portion of animals was recovered on normal OP50-seeded NGM plates. Animals that resumed development were considered to be surviving.
Nile Red staining was performed as previously described (Pino, et al., J. Vis. Exp. 73; 2013). Briefly, animals of indicated genotypes were collected, fixed in 40% isopropanol at room temperature for 3 min and stained in 3 μg ml-1 Nile Red working solution in dark for 2 h. Worms were then washed with M9 for at least 30 min, mounted on slides and imaged under the green fluorescent protein channel of microscope Zeiss Axio Imager with Zen software package. Fluorescent density was measured using ImageJ software. Approximately ten animals from each experiment (n) were used to calculate the fluorescent density.

SKN-1 = SKN-1 transcriptional activity reporter gst-4p::GFP activation in worms; format: in vivo, C. elegans
alh-6 mutants = settings: NAC treatment, previous study; cited from earlier work

## CC(=O)N[C@@H](CS)C(=O)O [NAC, N-acetylcysteine]
alh-6 mutant worms
  fat mobilization in response to fasting: still exhibited accelerated fat mobilization
SKN-1; gst-4p::GFP reporter, arsenite as inducer of oxidative stress, NAC treatment
  SKN-1 reporter activation induced by exposure to arsenite: blocked the SKN-1 reporter activation; also recorded: inhibits arsenite (AS) induced SKN-1 reporter activation
SKN-1; gst-4p::GFP reporter, fasted alh-6 mutants, NAC treatment
  SKN-1 activation observed in fasted alh-6 mutants: no effect; also recorded: not activation when alh-6 mutants are fasted
alh-6 mutants
  shortened lifespan of alh-6 mutants: completely abrogated the shortened lifespan

## arsenite
SKN-1; in vivo
  SKN-1 reporter activation: SKN-1 reporter activation induced
